ChEMBL document CHEMBL3885861, “Open TG-GATES”

Species on record: Rattus norvegicus
Test: Open TG-GATES - Regimen: Daily Repeat
Type: toxicity, organism-based, Sprague-Dawley
Parameters: regimen Daily Repeat, gender Male, age 6 weeks
Conditions: in vivo, po, 30 mg/kg, route gavage, dose level Low; for APTT / Bas / Eos / Fbg / Hb / Ht / Lym / MCH / MCHC / MCV / Mono / Neu / PT / Plat / RBC / Ret / WBC: tissue Blood; for KIDNEY_L / KIDNEY_R / KIDNEY_TOTAL: tissue Kidney; for LIVER: tissue Liver; for A/G / ALP / ALT / AST / BUN / CRE / Ca / Cl / DBIL / GLC / IP / K / LDH / Na / PL / RALB / TBIL / TC / TG / TP / gamma-GTP: tissue Plasma

Cc1cccc(Nc2ccccc2C(=O)O)c1C [MEFENAMIC ACID]
TERMINAL_BW (72 h, time 3 day): 232.8 g | APTT (72 h, time 3 day): 19.8 s | Bas (72 h, time 3 day): 0% | Eos (72 h, time 3 day): 1% | Fbg (72 h, time 3 day): 221.8 mg/dL | Hb (72 h, time 3 day): 13.4 g/dL | Ht (72 h, time 3 day): 38.3% | Lym (72 h, time 3 day): 79.6% | MCH (72 h, time 3 day): 21.4 pg | MCHC (72 h, time 3 day): 35% | MCV (72 h, time 3 day): 61.1 fL | Mono (72 h, time 3 day): 2.4% | Neu (72 h, time 3 day): 15.4% | PT (72 h, time 3 day): 11.9 s | Plat (72 h, time 3 day): 117.6 x10_4/uL | RBC (72 h, time 3 day): 627.4 x10_4/ul | Ret (72 h, time 3 day): 5.6% | WBC (72 h, time 3 day): 94.5 x10_2/uL | KIDNEY_L (72 h, time 3 day): 1 g | KIDNEY_R (72 h, time 3 day): 1 g | KIDNEY_TOTAL (72 h, time 3 day): 2 g | LIVER (72 h, time 3 day): 10.6 g | A/G (72 h, time 3 day): 1.6 | ALP (72 h, time 3 day): 1154.4 IU/L | ALT (72 h, time 3 day): 36.2 IU/L | AST (72 h, time 3 day): 66.2 IU/L | BUN (72 h, time 3 day): 14.6 mg/dL | CRE (72 h, time 3 day): 0.4 mg/dL | Ca (72 h, time 3 day): 10.8 mg/dL | Cl (72 h, time 3 day): 102 meq/L | DBIL (72 h, time 3 day): 0.09 mg/dL | GLC (72 h, time 3 day): 190.6 mg/dL | IP (72 h, time 3 day): 7.8 mg/dL | K (72 h, time 3 day): 4.2 meq/L | LDH (72 h, time 3 day): 171.8 IU/L | Na (72 h, time 3 day): 140 meq/L | PL (72 h, time 3 day): 164.6 mg/dL | RALB (72 h, time 3 day): 3.5 g/dL | TBIL (72 h, time 3 day): 0.2 mg/dL | TC (72 h, time 3 day): 91 mg/dL | TG (72 h, time 3 day): 94.4 mg/dL | TP (72 h, time 3 day): 5.6 g/dL | gamma-GTP (72 h, time 3 day): 0.8 IU/L | TERMINAL_BW ([…], time 7 day): 268.5 g | TERMINAL_BW ([…], time 14 day): 312.8 g | TERMINAL_BW ([…], time 28 day): 397.4 g | APTT ([…], time 7 day): 19.2 s | Bas ([…], time 7 day): 0% | Eos ([…], time 7 day): 1.4% | Fbg ([…], time 7 day): 237 mg/dL | Hb ([…], time 7 day): 14 g/dL | Ht ([…], time 7 day): 39% | Lym ([…], time 7 day): 80.4% | MCH ([…], time 7 day): 22.2 pg | MCHC ([…], time 7 day): 35.8% | MCV ([…], time 7 day): 61.9 fL | Mono ([…], time 7 day): 2% | Neu ([…], time 7 day): 15% | PT ([…], time 7 day): 11.8 s | Plat ([…], time 7 day): 125.5 x10_4/uL | RBC ([…], time 7 day): 629.6 x10_4/ul | Ret ([…], time 7 day): 5.4% | WBC ([…], time 7 day): 98.6 x10_2/uL | APTT ([…], time 14 day): 19.6 s | Bas ([…], time 14 day): 0% | Eos ([…], time 14 day): 1% | Fbg ([…], time 14 day): 224.2 mg/dL | Hb ([…], time 14 day): 14.5 g/dL | Ht ([…], time 14 day): 40.6% | Lym ([…], time 14 day): 80% | MCH ([…], time 14 day): 21.5 pg | MCHC ([…], time 14 day): 35.7% | MCV ([…], time 14 day): 60.3 fL | Mono ([…], time 14 day): 2.4% | Neu ([…], time 14 day): 15.4% | PT ([…], time 14 day): 12.1 s | Plat ([…], time 14 day): 117 x10_4/uL | RBC ([…], time 14 day): 673.6 x10_4/ul | Ret ([…], time 14 day): 4% | WBC ([…], time 14 day): 93.1 x10_2/uL | APTT ([…], time 28 day): 18.7 s | Bas ([…], time 28 day): 0% | Eos ([…], time 28 day): 1.2% | Fbg ([…], time 28 day): 248.6 mg/dL | Hb ([…], time 28 day): 15.6 g/dL | Ht ([…], time 28 day): 43.9% | Lym ([…], time 28 day): 81.8% | MCH ([…], time 28 day): 20.4 pg | MCHC ([…], time 28 day): 35.5% | MCV ([…], time 28 day): 57.5 fL | Mono ([…], time 28 day): 2.2% | Neu ([…], time 28 day): 13% | PT ([…], time 28 day): 12.1 s | Plat ([…], time 28 day): 107.9 x10_4/uL | RBC ([…], time 28 day): 764.2 x10_4/ul | Ret ([…], time 28 day): 2.5% | WBC ([…], time 28 day): 93.1 x10_2/uL | KIDNEY_L ([…], time 7 day): 1.1 g | KIDNEY_R ([…], time 7 day): 1.1 g | KIDNEY_TOTAL ([…], time 7 day): 2.2 g | KIDNEY_L ([…], time 14 day): 1.2 g | KIDNEY_R ([…], time 14 day): 1.2 g | KIDNEY_TOTAL ([…], time 14 day): 2.4 g | KIDNEY_L ([…], time 28 day): 1.4 g | KIDNEY_R ([…], time 28 day): 1.4 g | KIDNEY_TOTAL ([…], time 28 day): 2.8 g | LIVER ([…], time 7 day): 12.3 g | LIVER ([…], time 14 day): 13.7 g | LIVER ([…], time 28 day): 16.1 g | A/G ([…], time 7 day): 1.6 | ALP ([…], time 7 day): 1054 IU/L | ALT ([…], time 7 day): 38.2 IU/L | AST ([…], time 7 day): 69.8 IU/L | BUN ([…], time 7 day): 15 mg/dL | CRE ([…], time 7 day): 0.4 mg/dL | Ca ([…], time 7 day): 10.6 mg/dL | Cl ([…], time 7 day): 102.8 meq/L | DBIL ([…], time 7 day): 0.098 mg/dL | GLC ([…], time 7 day): 222.6 mg/dL | IP ([…], time 7 day): 7.2 mg/dL | K ([…], time 7 day): 3.7 meq/L | LDH ([…], time 7 day): 204.4 IU/L | Na ([…], time 7 day): 140.2 meq/L | PL ([…], time 7 day): 152.4 mg/dL | RALB ([…], time 7 day): 3.5 g/dL | TBIL ([…], time 7 day): 0.2 mg/dL | TC ([…], time 7 day): 75.8 mg/dL | TG ([…], time 7 day): 114.2 mg/dL | TP ([…], time 7 day): 5.7 g/dL | gamma-GTP ([…], time 7 day): 0.8 IU/L | A/G ([…], time 14 day): 1.4 | ALP ([…], time 14 day): 881.8 IU/L | ALT ([…], time 14 day): 33.4 IU/L | AST ([…], time 14 day): 57.8 IU/L | BUN ([…], time 14 day): 16 mg/dL | CRE ([…], time 14 day): 0.4 mg/dL | Ca ([…], time 14 day): 10.6 mg/dL | Cl ([…], time 14 day): 103.4 meq/L | DBIL ([…], time 14 day): 0.098 mg/dL | GLC ([…], time 14 day): 205.2 mg/dL | IP ([…], time 14 day): 7.1 mg/dL | K ([…], time 14 day): 3.9 meq/L | LDH ([…], time 14 day): 152.4 IU/L | Na ([…], time 14 day): 140.8 meq/L | PL ([…], time 14 day): 151.4 mg/dL | RALB ([…], time 14 day): 3.3 g/dL | TBIL ([…], time 14 day): 0.2 mg/dL | TC ([…], time 14 day): 74.4 mg/dL | TG ([…], time 14 day): 125 mg/dL | TP ([…], time 14 day): 5.7 g/dL | gamma-GTP ([…], time 14 day): 1 IU/L | A/G ([…], time 28 day): 1.4 | ALP ([…], time 28 day): 696 IU/L | ALT ([…], time 28 day): 32.8 IU/L | AST ([…], time 28 day): 57.8 IU/L | BUN ([…], time 28 day): 17.8 mg/dL | CRE ([…], time 28 day): 0.5 mg/dL | Ca ([…], time 28 day): 10.5 mg/dL | Cl ([…], time 28 day): 103.8 meq/L | DBIL ([…], time 28 day): 0.082 mg/dL | GLC ([…], time 28 day): 227 mg/dL | IP ([…], time 28 day): 6.6 mg/dL | K ([…], time 28 day): 3.5 meq/L | LDH ([…], time 28 day): 103.4 IU/L | Na ([…], time 28 day): 141.2 meq/L | PL ([…], time 28 day): 146.2 mg/dL | RALB ([…], time 28 day): 3.5 g/dL | TBIL ([…], time 28 day): 0.1 mg/dL | TC ([…], time 28 day): 78.2 mg/dL | TG ([…], time 28 day): 97 mg/dL | TP ([…], time 28 day): 6.1 g/dL | gamma-GTP ([…], time 28 day): 1.2 IU/L
